Structures are written as SMILES. In brackets after ≈: the same amount, converted by molar mass.

One series deals with Streptococcus pyogenes. The series can be described thus: MIC by broth microdilution (CLSI). It is filed as cell-based.
In another series the test system is Enterococcus faecium. In words: MIC by broth microdilution (CLSI). Format: cell-based. The settings on record: compared to that against Staphylococcus.
The next series relates to rabbit red blood cells. In words: Hemolytic activity. Format: cell-based. The conditions noted are these: 0 to 512 μg/mL.
For another series, the system named is MRSA USA300. In words: Mouse lung infection model, bacterial load and histopathology. Format: in vivo, mice. The settings on record: mouse pneumonia. The procedure: The mice were challenged with 1 × 10^8 CFU of MRSA USA300 to assess bacterial load and pathological changes. The dose and manner of administration in mice were consistent with the survival experiments. In addition, the mice treated with ceftaroline fosamil at 75 and 37.5 mg/kg were used as control groups. At 48 h postinfection, mice were euthanized, and the left lungs were aseptically removed, weighed, and homogenized. Then, the lung tissues were homogenized and serially diluted for CFU counts. The right lungs were fixed with 10% formalin, embedded in paraffin, thin-sectioned, subjected to conventional hematoxylin and eosin (H&E) staining, and then observed using an optical microscope.

As for `C#CCO[C@@]1(NC(=O)CSc2cccc(C)c2)C(=O)N2C(C(=O)O)=C(CSc3nnnn3C)CSC21` (some centres unmarked) [WYBQ-4], the MIC (in general, the smallest concentration in the dilution series that meets the test's criterion for growth inhibition) with Streptococcus pyogenes is 1 µg/mL (≈ 1.83 µM). Moreover, in the series with Enterococcus faecium, the antibacterial activity entry is recorded as “weak”. Moreover, in the series on rabbit red blood cells, the hemolytic activity result was “did not show hemolytic activity”. Moreover, in the series with MRSA USA300 (USA300 1 × 10^8 CFU, 75 mg/kg, 48 h postinfection), the “bacterial counts in the lung” value is listed as 5.44 ± 0.15 log10 CFU/g. Further, the “inflammatory signs of lung tissue (H&E histopathology)” value in the series on MRSA USA300 (USA300, after treatment) is “significantly reduced”.

Source of the values: paper PMC9603521, “WYBQ-4: a New Bactericidal Agent against Methicillin-Resistant Staphylococcus aureus” (Microbiology Spectrum, 2022).
